# Entries after “also recorded” stand apart in the source; their conditions may differ.
# Key:
# GPR83 (HTLA cells) = test: TANGO β-arrestin assay, GPR83; assay type: cell-based, human; details: ligand library containing PEN (library plates 10 µM); HTLA cells expressing GPR83; PRESTO-Tango, RLU
# Protocol: The TANGO assay reports GPCR-related activation of β-arrestin using a luminescent readout.
# For the determination of β-arrestin recruitment after GPCR activation, the PRESTO-Tango system was utilized. On day one, HTLA cells (HEK293 cell line stably expressing a tTA-dependent luciferase reporter and a β-arrestin2-TEV fusion gene, maintained in RPMI supplemented with 10% FBS, 2 μg/mL puromycin, and 100 μg/mL hygromycin) were seeded into 150 mm cell culture plates at 1 × 10^7 cells per well in 30 mL of medium. The next day, transfections were performed directly in the 150 mm plates using jetPEI (Polyplus, Illkirch, France). Plasmid DNA of interest was prepared for transfection following the jetPEI protocol and with a DNA/jetPEI ratio of 1:1. A GFP-encoding plasmid was added as a transfection control (GFP plasmid added as 10% of total DNA to the total NaCl used for plasmid DNA dilution). On day 3, transfected cells were transferred at 15,000 cells per well in 30 μL of medium into 384-well black well, clear bottom plates. On day 4, ligand library multiwall plates (10 µM) were thawed, and 23 μL was added to each well. On day 5, 50 μL per well of BrightGlo luminescence reagent (diluted 10-fold with HBSS buffer) was carefully added, and plates were incubated for 10 min before luminescence reading in the EnVision 2103 Multilabel Reader (Perkin Elmer).
# [1] = tested on: GPR83 and GPR83del, with or without HA tag (HEK293 cells; wild-type HEK293 as comparison); test: Competitive radioligand binding assay, GPR83; set-up: species or system human
# Source text: One of the most proven methods for quantitatively analyzing the interaction of biomolecules is the competitive radioligand binding assay. […] To safeguard against possible interference of the added Tyr with ligand–receptor binding, two peptides were created and are as follows: one with the Tyr on the aminoterminal end (Tyr-PEN), and the other with Tyr added on the carboxyterminus (PEN-Tyr). Radiolabeled ^125I-PEN-Tyr and ^125I-Tyr-PEN were then used on wild-type HEK293 cells and HEK293 cells expressing various forms of GPR83 (full-length or deletion variant, with or without HA tag) in competition with different concentrations of natural PEN or Tyr-PEN, ranging from 1 pM to 1 µM.
# Figure 5 HEK293 wild-type cells and HEK293 cells overexpressing various forms of GPR83 were used in radioligand binding assays with two different radioactively labeled PEN peptides: [^125I]-Tyr-PEN or [^125I]-PEN-Tyr. (A) Radioligand [^125I]-PEN-Tyr in competition with unlabeled wild-type PEN. (B) Radioligand [^125I]-Tyr-PEN in competition with unlabeled wild-type PEN. (C) Radioligand [^125I]-PEN-Tyr in competition with unlabeled wild-type PEN. (D) Radioligand [^125I]-Tyr-PEN in competition with Tyr-PEN. […]
# Two variants of human PENs were utilized for radioiodination in this study: one with a tyrosine added at the aminoterminal end (Tyr-PEN: […]-NH2), and one with an additional tyrosine attached to the carboxyterminal end (PEN-Tyr: […]-NH2). Both were labelled with ^125I using the chloramine-T method. Chloramine-T and sodium metabisulfite solutions were freshly prepared in water. For labelling, 10 µL of peptide (stock 1 mM) with 15 µL of sodium phosphate buffer (0.5 M, pH 7.6) was mixed with 37 MBq carrier-free Na^125I (NEZ033L010MC, Perkin Elmer, Waltham, MA, USA). A 4 μL volume of chloramine T (1 mg/mL) was added to start the reaction, and after 30 s, 4 μL sodium metabisulfite (2 mg/mL) was added to stop the iodination. The labeled radioactive peptide was separated from unlabeled peptide with HPLC purification (Agilent ZORBAX 300 Extend-C18 column) using a gradient from 20–50% acetonitrile (+0.1% TFA) against water (+0.1% TFA) for 20 min. To determine the retention time of the radioactive peptide, 1–2 µL of the reaction mixture was analyzed before the purification run. The fraction containing the radiolabeled peptide peak was then collected, diluted with binding buffer to prevent radioautolysis, aliquoted, and stored at −80 °C.
# 4.10. Radioligand Binding Assay
# For competitive radioligand binding assay, approximately 50,000 cells/well were seeded in a 96-well plate incubated overnight at 37 °C. Next day, cells were incubated in binding buffer (50 mM HEPES pH 7.4, 5 mM MgCl2, 1 mM CaCl2, 0.5% BSA, cOmplete protease inhibitors) containing 100,000 counts per minute of ^125I-labelled peptide, with increasing concentrations of unlabeled peptide. After 2 h of incubation, cells were washed for 2–3 times with ice-cold washing buffer (50 mM Tris-HCl, pH 7.4, 125 mM NaCl, 0.05% BSA) and lysed with 1 N NaOH (80 µL/well). The lysed cells were transferred to vials and measured in a gamma counter (Wallac 1470 Wizard, Perkin Elmer, Waltham, MA, USA). Obtained cpm values were plotted with GraphPad Prism 7, and the data were fitted using nonlinear regression (one site—fit Ki, one site—fit logIC50).
sequence,measurement,setting,value
"AADHDVGSELPPEGVLGALLRV [PEN, batch #1 synthesized, batch #2 purchased from Phoenix Pharmaceuticals]",β-arrestin activation (luminescence),GPR83 (HTLA cells),no reactivity was detected; also recorded: failed to generate a signal
same,concentration-dependent displacement of radioligand,"[1]; unlabeled peptide 1 pM to 1 µM versus 125I-PEN-Tyr or 125I-Tyr-PEN, HEK293 wild-type and GPR83 / GPR83del with or without HA tag, pH 7.4, 2 h",neither of these different assay conditions led to a PEN-GPR83 binding signal above background or a concentration-dependent displacement of the radioligand
same,interaction with GPR83 in radioligand binding assay,"[1]; up to four GPR83-overexpressing cell clones, two radiolabeled PEN variants, whole cells",no interaction could be detected between PEN and GPR83
